US20230138177A1 (priority 2020, published 2023)

Assays:
[1] = target: T1, DYRK1B (Homo sapiens, UniProt Q9Y463); format: cell-based; design: expressed in transfected cells; host or cells: glioma cells (U87)
[2] = system: DYRK4
[3] = system: DYRK1B; format: cell-based, human
[4] = system: VCB-CUL2 complex; format: binding
[5] = system: HIF2α; format: cell-based, human
[6] = system: GSK3β; format: biochemical, human
[7] = system: DYRK1A; format: cell-based, human
[8] = system: GSK3β; format: cell-based, human
[9] = target: T1, DYRK1B; format: biochemical; design: expressed in transfected cells; host or cells: HEK293T or U87 cells; immunoprecipitate used in vitro; settings: FLAG-DYRK1B from cells treated with harmine 10 μM or CX-4945 1 μM for 8 hours
[10] = target: T2, DYRK1B (Homo sapiens, UniProt Q9Y463, P333A); format: cell-based
T2 construct: expressed in transfected cells; host or cells: glioma cells (U87)
T2 sequence (Q9Y463 whole entry P333A): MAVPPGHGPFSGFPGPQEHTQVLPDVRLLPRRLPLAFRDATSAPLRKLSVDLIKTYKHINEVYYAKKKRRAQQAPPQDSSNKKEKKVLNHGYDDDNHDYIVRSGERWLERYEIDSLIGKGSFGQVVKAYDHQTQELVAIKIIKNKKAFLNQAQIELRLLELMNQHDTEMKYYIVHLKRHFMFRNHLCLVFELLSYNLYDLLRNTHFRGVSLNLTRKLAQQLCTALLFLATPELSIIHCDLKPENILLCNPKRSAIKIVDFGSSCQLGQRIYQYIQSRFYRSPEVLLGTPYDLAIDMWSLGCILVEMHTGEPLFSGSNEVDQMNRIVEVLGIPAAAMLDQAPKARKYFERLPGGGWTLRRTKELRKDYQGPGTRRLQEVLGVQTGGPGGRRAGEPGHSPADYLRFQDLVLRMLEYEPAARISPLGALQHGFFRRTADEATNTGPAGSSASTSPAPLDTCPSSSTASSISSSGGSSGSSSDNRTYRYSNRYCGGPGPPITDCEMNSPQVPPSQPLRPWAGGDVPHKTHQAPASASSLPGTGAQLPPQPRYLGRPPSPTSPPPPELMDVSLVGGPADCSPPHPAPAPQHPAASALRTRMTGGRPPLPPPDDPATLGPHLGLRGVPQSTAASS

Chain of GSK3β (P49841 whole entry): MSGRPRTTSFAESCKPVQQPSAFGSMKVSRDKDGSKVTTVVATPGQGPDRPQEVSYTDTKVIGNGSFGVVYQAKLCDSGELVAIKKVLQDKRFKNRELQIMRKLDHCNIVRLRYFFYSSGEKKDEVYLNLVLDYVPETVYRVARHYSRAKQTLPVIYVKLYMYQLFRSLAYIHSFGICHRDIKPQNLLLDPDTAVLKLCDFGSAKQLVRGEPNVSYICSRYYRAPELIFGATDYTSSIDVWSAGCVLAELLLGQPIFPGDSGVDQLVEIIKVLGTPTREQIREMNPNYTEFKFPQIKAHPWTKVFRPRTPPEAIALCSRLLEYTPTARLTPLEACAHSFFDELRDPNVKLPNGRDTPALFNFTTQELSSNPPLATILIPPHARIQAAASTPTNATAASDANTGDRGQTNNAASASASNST
T1 sequence (Q9Y463 whole entry): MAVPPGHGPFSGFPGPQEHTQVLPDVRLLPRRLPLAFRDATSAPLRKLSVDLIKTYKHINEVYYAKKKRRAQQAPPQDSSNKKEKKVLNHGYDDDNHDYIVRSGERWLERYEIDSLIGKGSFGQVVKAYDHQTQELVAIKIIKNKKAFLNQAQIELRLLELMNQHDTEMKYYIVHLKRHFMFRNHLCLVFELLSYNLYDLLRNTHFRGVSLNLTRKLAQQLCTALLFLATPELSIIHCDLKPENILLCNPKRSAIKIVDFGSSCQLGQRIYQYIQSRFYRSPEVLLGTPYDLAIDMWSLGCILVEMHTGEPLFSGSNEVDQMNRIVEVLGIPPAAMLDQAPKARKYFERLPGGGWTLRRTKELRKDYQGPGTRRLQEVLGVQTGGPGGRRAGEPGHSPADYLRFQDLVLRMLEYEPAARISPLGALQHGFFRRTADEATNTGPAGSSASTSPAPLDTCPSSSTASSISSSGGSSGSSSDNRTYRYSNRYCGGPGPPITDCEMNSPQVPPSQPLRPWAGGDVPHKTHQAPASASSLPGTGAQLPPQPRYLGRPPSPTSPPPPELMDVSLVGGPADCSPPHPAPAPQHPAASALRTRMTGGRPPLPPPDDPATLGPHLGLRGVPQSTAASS

| Compound | proline hydroxylation on DYRK1 kinase [1] | prolyl hydroxylation of DYRK1B [1] | tyrosine autophosphorylation of DYRK1B [1] | prolyl hydroxylation of DYRK4 [2] | tyrosine autophosphorylation of DYRK4 [2] | prolyl hydroxylation of DYRK1B [3] | tyrosine autophosphorylation of DYRK1B [3] | ID2-mediated dissociation of CUL2 from VCB [4] | VHL-HIF2α interaction [4] | proline hydroxylation on HIF2-α [5] | prolyl-hydroxylation of HIF2α [5] | GSK3β-mediated phosphorylation of GST-c-MYC [6] | prolyl hydroxylation of DYRK1A [7] | tyrosine autophosphorylation of DYRK1A [7] | prolyl hydroxylation of GSK3β [8] | tyrosine autophosphorylation of GSK3β [8] | phosphorylation of the ID2-T27 substrate [9] | prolyl hydroxylation of DYRK1B-P333A [10] | tyrosine auto-phosphorylation of DYRK1B-P333A [10] |
| --- | --- | --- | --- | --- | --- | --- | --- | --- | --- | --- | --- | --- | --- | --- | --- | --- | --- | --- | --- |
| CoCl2 | complete elimination | caused loss | caused loss | caused loss | caused loss | abolished | abolished | elicited | disrupted | complete elimination | prevented | abolished | abolished | abolished | caused loss | caused loss |  |  |  |
| COc1ccc2c(c1)[nH]c1c(C)nccc12 [harmine] |  | failed to perturb | severely impairing |  |  |  |  |  |  |  |  |  |  |  |  |  | severely impairing |  |  |
| COC(=O)CNC(=O)C(=O)OC [DMOG, dimethyloxalylglycine] |  | caused loss | caused loss |  |  |  |  |  |  |  |  |  |  |  |  |  |  | caused loss | caused loss |
